The values that follow are results of earlier work, collected in US20040112375A1, “Predicting outcome of hyperbaric oxygen therapy treatment with nitric oxide bioavailability” (priority 2002, published 2004).

Consider “2-(2,3-dihydro-5-acetoxy-4,6,7-trimethylbenzofuranyl) acetic acid [raxofelast]”, for which the “fall of plasma isoprostane levels” value (diabetic men, 600 mg twice daily for seven days) is 50%.

Consider `Cc1c(C)c2c(c(C)c1O)CC[C@@](C)(CCC[C@H](C)CCC[C@H](C)CCCC(C)C)O2` [alpha tocopherol], for which the “effect on isoprostane levels in biological fluids” value (in vivo) was “reduce such isoprostane levels”.
